# Test results as given in patent US20070048782A1, “Methods for assessing and treating leukemia” (priority 2001, published 2007).
# What was measured:
# [1] = system: blast cells in bone marrow; experiment: Clinical response of AML patients treated with FTI (blast cells in bone marrow aspirates); type: in vivo; settings: 600 mg twice daily over a 21 day period
# Description: The therapeutic agents referred to in this specification are FTIs. They take on a multitude of forms but share the essential inhibitory function of interfering with or lessening the farnesylation of proteins implicated in cancer and proliferative diseases. Preferably, the FTIs are those indicated for the treatment of leukemias such as AML. A patient who responds to an FTI is one in whom a reduction of more than 50% of blast cells is seen in bone marrow following treatment with the FTI.
# Bone marrow aspirates were obtained from two patients diagnosed with AML who had been treated with FTI. These AML patients were administered 600 mg (B)-6-[amino(4-chlorophenyl)(1-methyl-1H-imidazol-5-yl)methyl]-4-(3-chlorophenyl)-1-methyl-2(1H)-quinolinone) twice daily over a 21 day period. Bone marrow aspirates were taken at baseline and once a week for the three weeks of treatment. […] Response was determined as a reduction of more than 50% of blast cells in bone marrow aspirates. The aspirates were diluted to 15 ml with PBS and Ficoll-density centrifuged. White blood cells were washed twice with PBS, resuspended in FBS with 10% DMSO and immediately frozen at −80° C. Cells were cryogenically preserved to maintain cell viability. Samples were thawed at 37° C. and 10× volume of RPMI with 20% FBS was added drop-wise over a period of 5 min. […] Cell viability was determined by Trypan Blue assay. […]
# HL-60 cells = experiment: Toxic dose assay, viable cell count by trypan blue exclusion at day seven; type: cell-based; settings: seven days of treatment, duplicate runs, read-out: IC50 (dose at which the number of viable cells in the treated sample was 50% of that in the control at day seven)
# Description: (§1) The AML-like cell lines HL-60 (promyelocytic) and U-937 (promonocytic) were obtained from the ATCC. AML-193 (monocytic) and THP-1 (monocytic) cells were obtained from the RW Johnson Pharmaceutical Research Center, San Diego. Cells were grown in Roswell Park Memorial Institute medium (RPMI) with 20% Fetal Bovine Serum (FBS). AML-193 was also supplemented with granulocyte-macrophage colony-stimulating factor (GM-CSF) (10 ng/ml), insulin (0.005 mg/ml), and transferrin (0.005 mg/ml).
# (§2) The cells of Example 1 were inoculated into 6-well plates at an initial concentration of 1×10^5 cells/ml. (B)-6-[amino(4-chlorophenyl)(1-methyl-1H-imidazol-5-yl)methyl]-4-(3-chlorophenyl)-1-methyl-2(1H)-quinolinone) was added at concentrations ranging form 0.5 to 500 nM in 3 μl of DMSO directly to the culture medium. Control cells from Example 1 were grown in medium alone or in medium supplemented with vehicle (0.1% DMSO). Cell numbers were counted at days four and seven in a hemocytometer and cell viability was determined by trypan blue exclusion assay. The IC50 was defined as the dose at which the number of viable cells in the treated sample was 50% of that in the control at day seven. Calculations were made based on duplicate runs of the experiment. The IC50 of the four cell lines was calculated after seven days of treatment with the FTI.
# AML-193 cells = experiment: as above; type: cell-based; settings: seven days of treatment, duplicate runs, read-out: IC50 (dose at which the number of viable cells in the treated sample was 50% of that in the control at day seven)
# Description: as §1, §2
# U-937 cells = experiment: as above; type: cell-based; settings: seven days of treatment, duplicate runs, read-out: IC50 (dose at which the number of viable cells in the treated sample was 50% of that in the control at day seven)
# Description: as §1, §2
# THP-1 cells = experiment: as above; type: cell-based; settings: seven days of treatment, duplicate runs, read-out: IC50 (dose at which the number of viable cells in the treated sample was 50% of that in the control at day seven)
# Description: as §1, §2
# [2] = system: AML-like cell lines (AML-193, HL-60, THP-1, U-937); experiment: Time course assay with cDNA microarray gene expression profiling of treated AML-like cell lines; type: cell-based; settings: 100 nM
# Description: Duplicate cultures of the cells of Example 1 were inoculated into 6-well plates at an initial concentration of 1×10^5 cells/ml. (B)-6-[amino(4-chlorophenyl)(1-methyl-1H-imidazol-5-yl)methyl]-4-(3-chlorophenyl)-1-methyl-2(1H)-quinolinone) was supplemented at a concentration of 100 nM in 3 μl of DMSO directly to the culture medium. The concentration of 100 nM was chosen for the subsequent time course experiments to normalize the treatment protocol based, in part, on the results of Example 2. Duplicate control cultures were grown in medium containing 0.1% DMSO. Duplicate cultures were harvested daily for a total of six days. Cells were counted, assayed for viability, and total RNA isolated according to the manufacturer's protocol (Qiagen RNeasy). […] RNA was treated with DNase1 (Qiagen DNase1 kit) to remove any residual genomic DNA. Linear amplification of RNA was conducted according to the procedure described in U.S. Pat. No. 5,545,522 to Van Gelder et. al. Aliquots of 5 μg of aRNA were then prepared for hybridization to cDNA arrays. […]
# The arrays contained 7452 cDNAs from the IMAGE consortium (Integrated Molecular Analysis of Genome and their Expression: Research Genetics, Huntsville, Ala.) and Incyte libraries. […] The fluorescence intensity for each spot was analyzed with AUTOGENE software (Biodiscovery, Los Angeles). […]
structure (smiles),measurement,setting,value
Cn1cncc1[C@@](N)(c1ccc(Cl)cc1)c1ccc2c(c1)c(-c1cccc(Cl)c1)cc(=O)n2C [(B)-6-[amino(4-chlorophenyl)(1-methyl-1H-imidazol-5-yl)methyl]-4-(3-chlorophenyl)-1-methyl-2(1H)-quinolinone)],Response (reduction of more than 50% of blast cells in bone marrow aspirates),[1]; AML patient one,responded
same,Response (reduction of more than 50% of blast cells in bone marrow aspirates),[1]; AML patient two,did not respond
same,IC50,HL-60 cells,24 nM
same,IC50,AML-193 cells,134 nM
same,IC50,U-937 cells,44 nM
same,IC50,THP-1 cells,19 nM
same,"Overall change in gene expression, treated versus control samples from the same day (scatter-plot correlation)",[2],no gross changes in gene expression
